As a reminder, the IC50 is the concentration at which inhibition is half-maximal.

Results on one compound are retold here after US6900239B2, “Tumor chemopotentiation using isocoumarin derivatives” (ILWZ ILEX Products, Inc., priority 2000, dated 2005).

Data set [1] concerns Seg-1 tumors. Kind of data set: NM-3 and ionizing radiation, tumor growth. The class given is in vivo, C57BL/6 nude mice. Here is the method:
The effects of NM-3 and IR on tumor growth were assessed in Lewis Lung Carcinoma (LLC), Seg-1, and SQ-20B tumors implanted in C57BL/6 nude mice.
Seg-1 tumors in the control group and the NM-3-treated group grew to 6.30±0.42 and 6.74±0.62 times original volume by day 15 at which time the animals were sacrificed due to tumor burden. Tumors in the IR (4 doses of 5 Gy) group initially regressed (0.64±0.03 times original volume, day 7) and then regrew (1.83±0.11, day 15). […] (FIG. 8B).

Data set [2] relates to MM1.S human multiple myeloma cells. Put plainly: Cell cycle profile (PI staining, sub-G1 cells). In kind it is cell-based. Here is the method:
(§1) Apoptosis was determined by staining cells with annexin V-FITC and propidium iodide (PI). Cells were treated with DEX in the presence or absence of NM-3. NM-3 was added 2 hours before the addition of DEX. After 24 hours of DEX exposure, cells were washed twice with cold PBS, resuspended in binding buffer (10 mM HEPES/NaOH (pH 7.4), 140 mM NaCl, 2.5 mM CaCl2), and then stained with annexin V-FITC (Clontech Laboratories) and PI (Boehringer-Manheim). Apoptosis was analyzed by using a flow cytometer (EPICS XL-MCL, Coulter Corp). The cultured cells were also subjected to cell cycle analysis. Briefly, cells were washed twice with PBS and fixed with 70% ethanol. Cells were then washed with 0.5 ml PBS and 1.0 ml phosphate-citric acid buffer (0.2 M Na2HPO4 and 0.1 M citric acid (pH 7.8)), treated with 200 μg/ml RNase for 15 min at 37° C., and stained with 50 μg/ml PI for 30 min at room temperature in the dark. Cells were filtered through 35-μm diameter mesh to remove clumps. Nuclear staining was analyzed by a flow cytometer. Cells with fractional DNA content located on DNA frequency histograms to the left of the G1 peak (sub-G1 cells) were identified as apoptotic cells.

The test system is the same in data set [3]. Put plainly: Apoptosis by annexin V-FITC and PI staining. In kind it is cell-based. Here is the method:
as §1

In data set [4] the test system is PC6. Kind of data set: Cell growth (WST-1) in the presence of NM-3. In kind it is cell-based. Particulars: Homo sapiens, PC-6, 72 h; 3 days culture with NM-3.
The subject of data set [5] is MDAMB-435 human breast tumor xenografts. Put plainly: MDAMB-435 orthotopic model, NM-3 with paclitaxel, second study (100 mm^3) and delivery routes. In kind it is in vivo, female NCRNU nude mice. The method, then: In order to determine the effect of the combination of NM-3 with the cytotoxic drug, paclitaxel on human breast tumor xenografts, female NCRNU nude mice were implanted with MDAMB-435 cells into the subaxillary mammary fat pad. NM-3 was administered via intraperitoneal (i.p.) injection daily at doses ranging from 10-100 mg/kg; paclitaxel was administered via i.p. injection every 7 days, starting on day 0, at 10 mg/kg.
In a second study, treatment was initiated when tumor volumes reached 100 mm^3. Paclitaxel was administered at the fixed dose of 12.5 mg/kg, q7d and NM-3 was dosed at 10 and 100 mg/kg, i.p. daily for 28 days.
A comparison was also made between different delivery routes of NM-3 in the combination studies. NM-3 given i.p. daily, bid, and continuously using Alzet mini osmotic pumps in combination with paclitaxel was evaluated for effectiveness in reducing tumor growth.

For data set [6], the system named is IMC carcinoma. Put plainly: Combination with cyclophosphamide, tumor weight. The class given is in vivo, CDF1 mice. Particulars: for Solid Weight mg ± S.D.: day 42. The method, then:
To determine the effect on IMC carcinoma growth of NM-3 treatment combined with simultaneous cyclophosphamide treatment, IMC carcinoma cells (1×10^6 cells per mouse) were subcutaneously transplanted into CDF1 mice (female, 10 weeks old) in the inguinal area. NM-3 which was dissolved using 5% DMSO+Tween80, was continuously orally administered from day 1 to day 41 after transplantation except on day 14, when cyclophosphamide (300 mg/kg) was injected intravenously.

Data set [7] has as its system Lewis Lung carcinoma (LLC) tumors. Put plainly: Radiation sensitivity of Lewis Lung carcinoma in vivo. More on the design: species or system C57BL/6 female mice. Here is the method:
To determine whether NM-3 treatment increases the radiation sensitivity of tumors in vivo, Lewis Lung carcinoma (LLC) tumors were established in C57BL/6 female mice (Frederick Cancer Research Institute) prior to NM-3 and radiation treatment. LLC cells (1×10^6 cells) were injected in the right hind limb of the mice and tumors were allowed to grow a volume of 250-350 mm^3. Tumor volumes were determined by direct measurements with calipers calculated by the formula: V=length×width×depth/2. Mice were then divided into groups and treated with NM-3 (100 mg/kg total) or PBS for two days before beginning radiation therapy. Animals then received NM-3 (25 mg/kg/day, i.p.) or PBS approximately four hours prior to radiation treatment. Tumors were irradiated using a GE Maxitron X-ray generator operating at 150 kV, 30 mA, using a 1 mm aluminum filter at a dose rate of 188 cGy/minute. Mice were shielded with lead except for the tumor-bearing area in the hind limb. Treatments and tumor measurements continued for a period of 17 days (see FIG. 4). […] Whereas control tumors reached 8 initial tumor volumes (Vo) after 8 days, X-ray treated tumors required 16 days to grow to this size. […] For comparison, data are plotted with two additional anti-angiogenic drugs, antiostatin and endostatin (see FIGS. 3B and 3C).

Data set [8] relates to human tumor cells and normal mouse cells. Put plainly: Cell growth (WST-1), summary over all cell lines. The class given is cell-based. The method, then:
To determine the extent to which NM-3 [2-(8-hydroxy-6-methoxy-1-oxo-1H-2-benzopyran-3-yl) propionic acid] inhibited the proliferation of, or was cytotoxic toward, human tumor cells and normal mouse cells, a variety of cell lines were grown in the presence of NM-3. The human cell lines used were K562 (leukemia cells), HT29 (colon tumor cells) HT1080 (reticulum blast sarcoma cells), and MCF7 (breast tumor cells). The mouse cells used were NIH3T3 cells (fibroblasts). All cell lines were cultured in 96-well plates to a density of 2-5×10^3 cells/well. Culture medium (RPMI 1640 plus 10% FBS) alone or containing NM-3 at one of several concentrations tested was then added to the cultures which were allowed to grow for an additional 3 days. To assess cell growth, 10 μl of WST-1 reagent (a chromogenic substrate for living cells) was added to each well and incubation continued for 3 hrs at 37° C. Absorbance at 450 nm was then determined using a plate reader.
(In general: Tetrazolium dyes change colour on reduction, which living cells bring about.)

The conditions of data set [9]: in vivo; cited from earlier work.
Setting [10] is: NM-3 combined with IR (4 doses of 5 Gy).
Where [11] appears, read: NM-3 1 mg/kg p.o. days 1-13, 15-41 alone.
Setting [12] is: NM-3 5 mg/kg p.o. days 1-13, 15-41 alone.

As to `COc1cc(O)c2c(=O)oc(C(C)C(=O)O)cc2c1` (centres unmarked) [NM-3, 2-(8-hydroxy-6-methoxy-1-oxo-1H-2-benzopyran-3-yl) propionic acid], in [1] (NM-3 alone, day 15), the Tumor volume was determined as 6.74±0.62 times original volume. The “Growth delay compared to IR alone group” value in data set [1] (setting [10]) is 3 days. Also, the “Growth delay compared to the control group” value in data set [1] (setting [10]) is on record as 14 days. Also, the “Mean tumor volume compared with IR alone” value in data set [1] (NM-3 combined with IR (4 doses of 5 Gy), days 15, 17, 19, 21 and 23) was “significantly reduced mean tumor volume”. The Cell cycle profiles result in data set [2] (NM-3 alone, 50-200 μg/ml) was “only nominal effects”. Also, in [2] (NM-3 with DEX 1 μM, 24 hours, concentration-dependent), the “DEX-induced sub-G1 cells (apoptotic cells)” value was “increased DEX-induced sub-G1 cells”. For the same compound, in data set [3] (NM-3 alone, 50-200 μg/ml), the “Population of cells positive for annexin V and PI (apoptotic cells)” value is “did not change the population of cells positive for annexin V and PI”. For the same compound, in [3] (pretreatment with NM-3, DEX 1 μM, 24 hours), the “DEX-induced increase of apoptotic cells” value is reported as “further enhanced”. The IC50 in data set [4] is greater than 500 µg/mL; in data set [8], greater than 100 µg/mL. For the same compound, the “% Tumor Growth Inhibition” value in [5] (NM-3 100 mg/kg I.P. daily alone) was determined as 26.67%. For the same compound, the “Final Tumor Ratio (V/Vo) +/− SEM” value in [5] (NM-3 100 mg/kg I.P. daily alone, 28 days) was determined as 4.70 ± 0.56 V/Vo. For the same compound, the “Mice with Complete Shrinkage” value in [5] (NM-3 100 mg/kg I.P. daily alone, n 9) was found to be 0. Besides, the Tumor growth inhibition entry in [5] (NM-3 alone, daily dose of 10 mg/kg) is reported as “no significant tumor growth inhibition”. For the same compound, the “Inhibition (%)” value in [6] (setting [11]) is 10.2%; in data set [6] (setting [12]) it was 12.6%. Moreover, the “Solid Weight mg ± S.D.” value in data set [6] (setting [11]) is listed as 11,093.0 ± 2040.6 mg; in data set [6] (setting [12]), 10792.4 ± 2979.7 mg. Also, the “Tumor weight versus control” value in data set [6] (NM-3 alone) is on record as “did not significantly reduce tumor weight”. For the same compound, the Further tumor growth entry in data set [7] (NM-3 25 mg/kg/day i.p. added to radiotherapy, 17 days) was “markedly reduced”. In addition, the Tumor growth result in data set [7] (NM-3 alone) is on record as “did not inhibit tumor growth at all”. Moreover, the “Radiation sensitization of tumors” value in data set [7] (combined with X-ray treatment) is reported as “dramatically enhances the sensitivity”. For the same compound, the Stability result in data set [9] is recorded as “highly stable”.
